Experiment: mn = molality of the nth substance listed, in mol/kg
Details: 100 kPa, Liquid; for electrical conductivity: Alternating current cell with electrodes; for speed of sound: Frequency=3 MHz, Sing-around technique in a fixed-path interferometer; for mass density: Vibrating tube method

CCCCn1cc[n+](C)c1C.F[B-](F)(F)F [1-butyl-2,3-dimethylimidazolium tetrafluoroborate] + O
Details | electrical conductivity [S/m] | mass density [kg/m3] | speed of sound [m/s]
288.15 K, m1 = 0.03 | 0.229 | – | –
288.15 K, m1 = 0.0308 | – | 1000.29 | 1471.8
288.15 K, m1 = 0.0312 | 0.236 | – | –
288.15 K, m1 = 0.0324 | 0.245 | – | –
288.15 K, m1 = 0.0338 | 0.256 | – | –
288.15 K, m1 = 0.0353 | 0.265 | – | –
288.15 K, m1 = 0.0369 | 0.276 | – | –
288.15 K, m1 = 0.0386 | 0.288 | – | –
288.15 K, m1 = 0.0406 | 0.303 | – | –
288.15 K, m1 = 0.04107 | – | 1000.68 | 1474.2
288.15 K, m1 = 0.0427 | 0.319 | – | –
288.15 K, m1 = 0.0451 | 0.336 | – | –
288.15 K, m1 = 0.0477 | 0.355 | – | –
288.15 K, m1 = 0.0507 | 0.375 | – | –
288.15 K, m1 = 0.05137 | – | 1001.08 | 1476.5
288.15 K, m1 = 0.0541 | 0.399 | – | –
288.15 K, m1 = 0.058 | 0.427 | – | –
288.15 K, m1 = 0.06162 | – | 1001.46 | 1478.6
288.15 K, m1 = 0.0624 | 0.457 | – | –
288.15 K, m1 = 0.0677 | 0.491 | – | –
288.15 K, m1 = 0.07 | 0.508 | – | –
288.15 K, m1 = 0.0725 | 0.526 | – | –
288.15 K, m1 = 0.0752 | 0.542 | – | –
288.15 K, m1 = 0.0781 | 0.564 | – | –
288.15 K, m1 = 0.0812 | 0.586 | – | –
288.15 K, m1 = 0.08198 | – | 1002.23 | 1482.5
288.15 K, m1 = 0.0846 | 0.608 | – | –
288.15 K, m1 = 0.0882 | 0.634 | – | –
288.15 K, m1 = 0.0922 | 0.661 | – | –
288.15 K, m1 = 0.0966 | 0.688 | – | –
288.15 K, m1 = 0.1014 | 0.713 | – | –
288.15 K, m1 = 0.1024 | – | 1002.99 | 1485.2
288.15 K, m1 = 0.1068 | 0.745 | – | –
288.15 K, m1 = 0.1127 | 0.772 | – | –
288.15 K, m1 = 0.1193 | 0.806 | – | –
288.15 K, m1 = 0.1231 | – | 1003.74 | 1486.4
288.15 K, m1 = 0.1267 | 0.846 | – | –
288.15 K, m1 = 0.1352 | 0.891 | – | –
288.15 K, m1 = 0.1436 | – | 1004.47 | 1487.1
288.15 K, m1 = 0.1448 | 0.941 | – | –
288.15 K, m1 = 0.1559 | 0.997 | – | –
288.15 K, m1 = 0.164 | – | 1005.19 | 1487.7
288.15 K, m1 = 0.1688 | 1.06 | – | –
288.15 K, m1 = 0.1841 | 1.14 | – | –
288.15 K, m1 = 0.1846 | – | 1005.91 | 1488.2
288.15 K, m1 = 0.2025 | 1.23 | – | –
288.15 K, m1 = 0.205 | – | 1006.62 | 1488.7
298.15 K, m1 = 0.0306 | 0.247 | – | –
298.15 K, m1 = 0.0308 | – | 998.165 | 1500.7
298.15 K, m1 = 0.031 | 0.249 | – | –
298.15 K, m1 = 0.0323 | 0.259 | – | –
298.15 K, m1 = 0.0337 | 0.27 | – | –
298.15 K, m1 = 0.0352 | 0.28 | – | –
298.15 K, m1 = 0.0368 | 0.291 | – | –
298.15 K, m1 = 0.0387 | 0.305 | – | –
298.15 K, m1 = 0.0407 | 0.319 | – | –
298.15 K, m1 = 0.04107 | – | 998.537 | 1502.3
298.15 K, m1 = 0.0429 | 0.334 | – | –
298.15 K, m1 = 0.0454 | 0.351 | – | –
298.15 K, m1 = 0.0472 | 0.366 | – | –
298.15 K, m1 = 0.0491 | 0.379 | – | –
298.15 K, m1 = 0.0513 | 0.395 | – | –
298.15 K, m1 = 0.05137 | – | 998.909 | 1504
298.15 K, m1 = 0.0536 | 0.413 | – | –
298.15 K, m1 = 0.0562 | 0.432 | – | –
298.15 K, m1 = 0.0575 | 0.441 | – | –
298.15 K, m1 = 0.059 | 0.45 | – | –
298.15 K, m1 = 0.0605 | 0.462 | – | –
298.15 K, m1 = 0.06162 | – | 999.277 | 1505.7
298.15 K, m1 = 0.0621 | 0.472 | – | –
298.15 K, m1 = 0.0637 | 0.485 | – | –
298.15 K, m1 = 0.0655 | 0.498 | – | –
298.15 K, m1 = 0.0674 | 0.513 | – | –
298.15 K, m1 = 0.0694 | 0.528 | – | –
298.15 K, m1 = 0.0715 | 0.54 | – | –
298.15 K, m1 = 0.0737 | 0.557 | – | –
298.15 K, m1 = 0.0761 | 0.575 | – | –
298.15 K, m1 = 0.0786 | 0.595 | – | –
298.15 K, m1 = 0.0813 | 0.615 | – | –
298.15 K, m1 = 0.08198 | – | 1000 | 1509
298.15 K, m1 = 0.0842 | 0.636 | – | –
298.15 K, m1 = 0.0874 | 0.658 | – | –
298.15 K, m1 = 0.0907 | 0.682 | – | –
298.15 K, m1 = 0.0943 | 0.708 | – | –
298.15 K, m1 = 0.0983 | 0.735 | – | –
298.15 K, m1 = 0.1024 | – | 1000.72 | 1511.6
298.15 K, m1 = 0.1026 | 0.761 | – | –
298.15 K, m1 = 0.1072 | 0.787 | – | –
298.15 K, m1 = 0.1123 | 0.816 | – | –
298.15 K, m1 = 0.1179 | 0.847 | – | –
298.15 K, m1 = 0.1231 | – | 1001.43 | 1512.3
298.15 K, m1 = 0.1242 | 0.881 | – | –
298.15 K, m1 = 0.1311 | 0.92 | – | –
298.15 K, m1 = 0.1388 | 0.962 | – | –
298.15 K, m1 = 0.1436 | – | 1002.11 | 1513
298.15 K, m1 = 0.1474 | 1.01 | – | –
298.15 K, m1 = 0.1573 | 1.06 | – | –
298.15 K, m1 = 0.164 | – | 1002.79 | 1513.5
298.15 K, m1 = 0.1685 | 1.12 | – | –
298.15 K, m1 = 0.1815 | 1.19 | – | –
298.15 K, m1 = 0.1846 | – | 1003.47 | 1514
298.15 K, m1 = 0.1966 | 1.27 | – | –
298.15 K, m1 = 0.205 | – | 1004.13 | 1514.6
298.15 K, m1 = 0.2145 | 1.35 | – | –
308.15 K, m1 = 0.0308 | – | 995.089 | 1523
308.15 K, m1 = 0.0309 | 0.278 | – | –
308.15 K, m1 = 0.032 | 0.287 | – | –
308.15 K, m1 = 0.0333 | 0.299 | – | –
308.15 K, m1 = 0.0347 | 0.305 | – | –
308.15 K, m1 = 0.0362 | 0.32 | – | –
308.15 K, m1 = 0.0379 | 0.331 | – | –
308.15 K, m1 = 0.0397 | 0.344 | – | –
308.15 K, m1 = 0.04107 | – | 995.443 | 1524.2
308.15 K, m1 = 0.0417 | 0.359 | – | –
308.15 K, m1 = 0.0439 | 0.378 | – | –
308.15 K, m1 = 0.0463 | 0.396 | – | –
308.15 K, m1 = 0.049 | 0.415 | – | –
308.15 K, m1 = 0.05137 | – | 995.796 | 1525.5
308.15 K, m1 = 0.0521 | 0.437 | – | –
308.15 K, m1 = 0.0556 | 0.462 | – | –
308.15 K, m1 = 0.0596 | 0.493 | – | –
308.15 K, m1 = 0.06162 | – | 996.146 | 1526.8
308.15 K, m1 = 0.0642 | 0.531 | – | –
308.15 K, m1 = 0.0695 | 0.568 | – | –
308.15 K, m1 = 0.0719 | 0.585 | – | –
308.15 K, m1 = 0.0745 | 0.603 | – | –
308.15 K, m1 = 0.0772 | 0.624 | – | –
308.15 K, m1 = 0.0802 | 0.649 | – | –
308.15 K, m1 = 0.08198 | – | 996.836 | 1529
308.15 K, m1 = 0.0834 | 0.673 | – | –
308.15 K, m1 = 0.0869 | 0.698 | – | –
308.15 K, m1 = 0.0906 | 0.727 | – | –
308.15 K, m1 = 0.0947 | 0.756 | – | –
308.15 K, m1 = 0.0992 | 0.788 | – | –
308.15 K, m1 = 0.1024 | – | 997.517 | 1531.1
308.15 K, m1 = 0.1042 | 0.819 | – | –
308.15 K, m1 = 0.1097 | 0.851 | – | –
308.15 K, m1 = 0.1158 | 0.883 | – | –
308.15 K, m1 = 0.1225 | 0.919 | – | –
308.15 K, m1 = 0.1231 | – | 998.186 | 1531.7
308.15 K, m1 = 0.1302 | 0.965 | – | –
308.15 K, m1 = 0.1388 | 1.01 | – | –
308.15 K, m1 = 0.1436 | – | 998.836 | 1532.1
308.15 K, m1 = 0.1487 | 1.07 | – | –
308.15 K, m1 = 0.1602 | 1.13 | – | –
308.15 K, m1 = 0.164 | – | 999.479 | 1532.5
308.15 K, m1 = 0.1735 | 1.2 | – | –
308.15 K, m1 = 0.1846 | – | 1000.13 | 1533
308.15 K, m1 = 0.1892 | 1.29 | – | –
308.15 K, m1 = 0.205 | – | 1000.75 | 1533.6
308.15 K, m1 = 0.208 | 1.4 | – | –
